Reference: article PMC6271099, “Synthesis and Biological Evaluation of Novel 2-Methoxypyridylamino-Substituted Riminophenazine Derivatives as Antituberculosis Agents” (Molecules, 2014)
≈ marks a conversion by molar mass, not a printed value.

Tests used:
M. tuberculosis H37Rv [1] = assay: Microplate Alamar Blue Assay (MABA), in vitro antituberculosis activity (MIC); type: cell-based; settings: Mycobacterium tuberculosis, 96-well plate
[2] = Cytotoxicity using Vero cells; settings: African green monkey, Vero cells
M. tuberculosis H37Rv [3] = assay: In vivo acute M. tuberculosis H37Rv infection assay in mice; parameters: species or system Mycobacterium tuberculosis; settings: for logCFU/lung: BALB/c mice infected with M. tuberculosis H37Rv, 20 mg/kg, after 30 days of treatment, mean ± SD, n = 5
Vero cells = assay: Cytotoxicity using Vero cells
[4] = Preliminary mouse pharmacokinetic study; settings: plasma, po, 20 mg/kg
[5] = Preliminary multidose in vivo toxicity study in mice; settings: oral 500 mg/kg once daily for 4 days; for Safety in mice (in words): 7-day observation; for Number of animals that survived/Total number of animals: followed by 7-day observation
[6] = as compared to CFZ
[7] = mouse model infected by M. tuberculosis H37Rv

Row | Compound | MIC (M. tuberculosis H37Rv [1]) [mg/L] | melting point [°C] | IC50 [2] [mg/L] | SI (selectivity index IC50/MIC) (Vero cells) | other results
1 | COc1ncccc1Nc1cc2nc3ccccc3n(-c3cccc(Cl)c3)c-2cc1=NC1CCC1 [Compound 12, 5-(3-Chlorophenyl)-3-cyclobutylimino-2-(2-methoxy-3-pyridyl)amino-3,5-dihydrophenazine] | 0.06 (≈ 0.124 µM) | 205 to 208 | > 64 | – | –
2 | CC(C)/N=c1\cc2n(-c3ccc(Cl)cc3)c3ccccc3nc-2cc1Nc1ccc(Cl)cc1 [CFZ, Clofazimine, reference compound] | 0.12 (≈ 0.253 µM) | – | 68.6 (≈ 145 µM) | 572 | logCFU/lung (M. tuberculosis H37Rv [3]): 4.29 ± 0.58; AUC(0-t) [4]: 8.22 µg·h/mL; Cmax [4]: 0.47 µg/mL; Tmax [4]: 2 h; half-life [4]: 27.1 h
3 | COc1ncccc1Nc1cc2nc3ccccc3n(-c3ccc(F)c(F)c3)c-2cc1=NC1CCC1 [Compound 17, 5-(3,4-Difluorophenyl)-3-cyclobutylimino-2-(2-methoxy-3-pyridyl)amino-3,5-dihydrophenazine] | 0.04 (≈ 0.0827 µM) | 200 to 201 | > 64 | – | –
4 | COc1ncccc1Nc1cc2nc3ccccc3n(-c3ccc(Cl)c(Cl)c3)c-2cc1=NC1CCC1 [Compound 23, 5-(3,4-Dichlorophenyl)-3-cyclobutylimino-2-(2-methoxy-3-pyridyl)amino-3,5-dihydrophenazine] | 0.06 (≈ 0.116 µM) | 216 to 219 | > 64 | – | –
5 | COc1ncccc1Nc1cc2nc3ccccc3n(-c3cccc(Cl)c3)c-2cc1=NC1CCCCC1 [Compound 13, 5-(3-Chlorophenyl)-3-cyclohexylimino-2-(2-methoxy-3-pyridyl)amino-3,5-dihydrophenazine] | 0.057 (≈ 0.112 µM) | 197 to 201 | 53.3 (≈ 104 µM) | 934 | –
6 | COc1ncccc1Nc1cc2nc3ccccc3n(-c3ccc(Cl)c(Cl)c3)c-2cc1=NC1CCC(OC)CC1 (centres unmarked) [Compound 25, 5-(3,4-Dichlorophenyl)-3-(4-methoxycyclohexyl)imino-2-(2-methoxy-3-pyridyl)amino-3,5-dihydro-phenazine] | 0.059 (≈ 0.103 µM) | 215 to 217 | > 64 | – | –
7 | COc1ncccc1Nc1cc2nc3ccccc3n(-c3ccc(F)c(F)c3)c-2cc1=NC1CCCCC1 [Compound 18, 5-(3,4-Difluorophenyl)-3-cyclohexylimino-2-(2-methoxy-3-pyridyl)amino-3,5-dihydrophenazine] | 0.03 (≈ 0.0586 µM) | 218 to 219 | > 64 | – | –
8 | COc1ncccc1Nc1cc2nc3ccccc3n(-c3cccc(Cl)c3)c-2cc1=NC1CC1 [Compound 11, 5-(3-Chlorophenyl)-3-cyclopropylimino-2-(2-methoxy-3-pyridyl)amino-3,5-dihydrophenazine] | 0.03 (≈ 0.0641 µM) | 211 to 214 | 50.9 (≈ 109 µM) | 1696 | –
9 | COc1ncccc1Nc1cc2nc3ccccc3n(-c3ccc(F)cc3)c-2c/c1=N\C(C)C [TBI-1004, reference compound] | 0.038 (≈ 0.0838 µM) | – | > 64 | – | –
10 | COc1ncccc1Nc1cc2nc3ccccc3n(-c3ccc(F)c(F)c3)c-2cc1=NC1CC1 [Compound 16, 5-(3,4-Difluorophenyl)-3-cyclopropylimino-2-(2-methoxy-3-pyridyl)amino-3,5-dihydrophenazine] | 0.014 (≈ 0.0298 µM) | 213 to 214 | 25.5 (≈ 54.3 µM) | 1822 | –
11 | COc1ncccc1Nc1cc2nc3ccccc3n(-c3ccc(F)c(F)c3)c-2cc1=NC1CCOCC1 [Compound 19, 5-(3,4-Difluorophenyl)-3-(4-tetrahydropyranyl)imino-2-(2-methoxy-3-pyridyl)amino-3,5-dihydro-phenazine] | 0.067 (≈ 0.13 µM) | 255 to 256 | > 64 | – | –
12 | COc1ncccc1Nc1cc2nc3ccccc3n(-c3ccc(Cl)c(Cl)c3)c-2cc1=NC1CC1 [Compound 22, 5-(3,4-Dichlorophenyl)-3-cyclopropylimino-2-(2-methoxy-3-pyridyl)amino-3,5-dihydrophenazine] | 0.025 (≈ 0.0498 µM) | – | > 64 | – | logCFU/lung (M. tuberculosis H37Rv [3]): 8.06 ± 0.13; Efficacy in mouse model (in words) (M. tuberculosis H37Rv [3]; [7]): failed to display efficacy; Safety in mice (in words) [5]: good safety; Number of animals that survived/Total number of animals [5]: 6/6
13 | COc1ncccc1Nc1cc2nc3ccccc3n(-c3cccc(Cl)c3)c-2cc1=NC1CCOCC1 [Compound 14, 5-(3-Chlorophenyl)-3-(4-tetrahydropyranyl)imino-2-(2-methoxy-3-pyridyl)amino-3,5-dihydrophenazine] | 0.025 (≈ 0.0488 µM) | 203 to 206 | 23.4 (≈ 45.7 µM) | 936 | –
14 | COc1ncccc1Nc1cc2nc3ccccc3n(-c3ccc(F)c(F)c3)c-2cc1=NC(C)C [Compound 15, 5-(3,4-Difluorophenyl)-3-isopropylimino-2-(2-methoxy-3-pyridyl)amino-3,5-dihydrophenazine] | 0.066 (≈ 0.14 µM) | – | > 64 | – | logCFU/lung (M. tuberculosis H37Rv [3]): 4.56 ± 0.38; Efficacy in mouse model (in words) (M. tuberculosis H37Rv [3]; [7]): excellent efficacy; Reduction of bacterial burden in the lungs as compared to the untreated control group (M. tuberculosis H37Rv [3]; mouse model infected by M. tuberculosis H37Rv, lungs): 3.8 logs colony forming units (CFU); Discoloration of the ears, internal organs and fat tissues of the mice [6]: less intense; AUC(0-t) [4]: 21.2 µg·h/mL; Cmax [4]: 1.83 µg/mL; Tmax [4]: 2 h; half-life [4]: 13.8 h; Safety in mice (in words) [5]: good safety; Number of animals that survived/Total number of animals [5]: 5/5
15 | COc1ncccc1Nc1cc2nc3ccccc3n(-c3ccc(F)c(F)c3)c-2cc1=NC1CCC(OC)CC1 (centres unmarked) [Compound 20, 5-(3,4-Difluorophenyl)-3-(4-methoxycyclohexyl)imino-2-(2-methoxy-3-pyridyl)amino-3,5-dihydro-phenazine] | 0.056 (≈ 0.103 µM) | 214 to 215 | > 64 | – | –
16 | COc1ncccc1Nc1cc2nc3ccccc3n(-c3ccc(Cl)c(Cl)c3)c-2cc1=NC1CCOCC1 [Compound 24, 5-(3,4-Dichlorophenyl)-3-(4-tetrahydropyranyl)imino-2-(2-methoxy-3-pyridyl)amino-3,5-dihydro-phenazine] | 0.08 (≈ 0.146 µM) | 232 to 233 | > 64 | – | –
17 | COc1ncccc1Nc1cc2nc3ccccc3n(-c3cccc(F)c3)c-2cc1=NC1CCOCC1 [Compound 9, 5-(3-Fluorophenyl)-3-(4-tetrahydropyranyl)imino-2-(2-methoxy-3-pyridyl)amino-3,5-dihydro-phenazine] | 0.061 (≈ 0.123 µM) | 190 to 191 | 9.21 (≈ 18.6 µM) | 151 | –
18 | COc1ncccc1Nc1cc2nc3ccccc3n(-c3cccc(F)c3)c-2cc1=NC(C)C [Compound 8, 5-(3-Fluorophenyl)-3-isopropylimino-2-(2-methoxy-3-pyridyl)amino-3,5-dihydrophenazine] | 0.06 (≈ 0.132 µM) | 198 to 199 | 2.65 (≈ 5.84 µM) | 44 | –
19 | COc1ncccc1Nc1cc2nc3ccccc3n(-c3cccc(Cl)c3)c-2cc1=NC(C)C [Compound 10, 5-(3-Chlorophenyl)-3-isopropylimino-2-(2-methoxy-3-pyridyl)amino-3,5-dihydrophenazine] | 0.25 (≈ 0.532 µM) | 215 to 217 | 5.1 (≈ 10.9 µM) | 20 | –
20 | COc1ncccc1Nc1cc2nc3ccccc3n(-c3ccc(Cl)c(Cl)c3)c-2cc1=NC(C)C [Compound 21, 5-(3,4-Dichlorophenyl)-3-isopropylimino-2-(2-methoxy-3-pyridyl)amino-3,5-dihydrophenazine] | 0.099 (≈ 0.196 µM) | 245 to 247 | > 64 | – | –
